Patent publication US9133115B2 (ACHILLION PHARMACEUTICALS, INC., priority 2008, dated 2015)

Test system: HCV replicon
Assay: HCV replicon replication assay (NPT ELISA) in Huh-7 replicon-containing cells
Format: cell-based
Conditions: Hepatitis C virus, 72 h; HCV replicon in Huh-7 cells, three days incubation; read-out: EC50
In short: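 Huh-7 cells carrying a bicistronic HCV replicon (HCV-IRES-neo, EMCV-IRES-driven NS3–NS5B, 3′-NTR) were seeded at 6000-7500 cells/well, grown 24 h to 60-70% confluence, then treated with graded compound concentrations. Replication was read as NPT level by capture ELISA (rabbit anti-NPTII, Eu-N1 secondary); interferon alpha served as positive control.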

Row | Structure (SMILES) | EC50 [nM]
1 | C=C[C@@H]1C[C@]1(NC(=O)[C@@H]1C[C@@H](Oc2cc(-c3ccccc3)nc3cc(OC)ccc23)CN1C(=O)[C@@H](CC(=O)N1C(C(=O)O)CC2CCCCC21)C(C)(C)C)C(=O)NS(=O)(=O)C1CC1 (stereo partly drawn) [Compound 142, 1-((S)-3-((2S,4R)-2-((1R,2S)-1-(cyclo-propylsulfonyl-carbamoyl)-2-vinyl-cyclopropyl-carbamoyl)-4-(7-methoxy-2-phenylquinolin-4-yloxy)pyrrolidine-1-carbonyl)-4,4-dimethylpentano-yl)octahydro-1H-indole-2-carboxylic acid] | < 1000
2 | C=C[C@@H]1C[C@]1(NC(=O)[C@@H]1C[C@@H](Oc2nc(-c3ccccn3)nc3cc(OC)ccc23)CN1C(=O)[C@@H](CC(=O)N1CCCCC1)C(C)(C)C)C(=O)NS(=O)(=O)C1CC1 [Compound 144, (2S,4R)-1-((S)-2-tert-butyl-4-oxo-4-(piperidin-1-yl)butanoyl)-N-((1R,2S)-1-(cyclo-propylsulfonyl-carbamoyl)-2-vinyl-cyclopropyl)-4-(7-methoxy-2-(pyridin-2-yl)quinazolin-4-yloxy)pyrrolidine-2-carboxamide] | < 1000
3 | C=C[C@@H]1C[C@]1(NC(=O)[C@@H]1C[C@@H](Oc2cc(-c3ccccc3)nc3cc(OC)ccc23)CN1C(=O)[C@@H](CC(=O)N1CCCCC1)C(C)(C)C)C(=O)NS(=O)(=O)C1(CC)CC1 [Compound 145, (2S,4R)-1-((S)-2-tert-butyl-4-oxo-4-(piperidin-1-yl)butanoyl)-N-((1R,2S)-1-(1-ethylcyclopropyl-sulfonylcarbamoyl)-2-vinylcyclopropyl)-4-(7-methoxy-2-phenylquinolin-4-yloxy)pyrrolidine-2-carboxamide] | < 1000
4 | C=C[C@@H]1C[C@]1(NC(=O)[C@@H]1C[C@@H](Oc2cc(-c3ccccc3)nc3cc(OC)ccc23)CN1C(=O)[C@@H](CC(=O)N1CCCCC1)C(C)(C)C)C(=O)NS(=O)(=O)C1(CCC)CC1 [Compound 146, (2S,4R)-1-((S)-2-tert-butyl-4-oxo-4-(piperidin-1-yl)butanoyl)-4-(7-methoxy-2-phenylquinolin-4-yloxy)-N-((1R,2S)-1-(1-propylcyclo-propylsulfonyl-carbamoyl)-2-vinyl-cyclopropyl)pyr-rolidine-2-carboxamide] | < 1000
5 | C=C[C@@H]1C[C@]1(NC(=O)[C@@H]1C[C@@H](Oc2cc(-c3ccccc3)nc3cc(OC)ccc23)CN1C(=O)[C@@H](CC(=O)N1CCCCC1)C(C)(C)C)C(=O)NS(=O)(=O)C1(Cc2ccccc2)CC1 [Compound 147, (2S,4R)-N-((1R,2S)-1-(1-benzylcyclo-propylsulfonyl-carbamoyl)-2-vinyl-cyclopropyl)-1-((S)-2-tert-butyl-4-oxo-4-(piperidin-1-yl)butanoyl)-4-(7-methoxy-2-phenylquinolin-4-yloxy)pyrrolidine-2-carboxamide] | 1000 to 10000
6 | C=C[C@@H]1C[C@]1(NC(=O)[C@@H]1C[C@@H](Oc2cc(-c3ccccn3)c3ccc(OC)c(Cl)c3n2)CN1C(=O)[C@@H](CC(=O)N1CCCCC1)C(C)(C)C)C(=O)NS(=O)(=O)C1CC1 [Compound 148, (2S,4R)-1-((S)-2-tert-butyl-4-oxo-4-(piperidin-1-yl)butanoyl)-4-(8-chloro-7-methoxy-4-(pyridin-2-yl)quinolin-2-yloxy)-N-((1R,2S)-1-(cyclopropyl-sulfonylcarbamoyl)-2-vinyl-cyclopropyl)pyr-rolidine-2-carboxamide] | 1000 to 10000
7 | CC[C@@H]1C[C@]1(NC(=O)[C@@H]1C[C@@H](Oc2cc(-c3ccccc3)nc3cc(OC)ccc23)CN1C(=O)[C@@H](CC(=O)N1CCCCC1)C(C)(C)C)C(=O)NS(=O)(=O)C1CC1 [Compound 149, (2S,4R)-1-((S)-2-tert-butyl-4-oxo-4-(piperidin-1-yl)butanoyl)-N-((1R,2R)-1-(cyclo-propylsulfonyl-carbamoyl)-2-ethylcyclopropyl)-4-(7-methoxy-2-phenylquinolin-4-yloxy)pyrrolidine-2-carboxamide] | < 1000
8 | C=C[C@@H]1C[C@]1(NC(=O)[C@@H]1C[C@@H](Oc2cc(-c3ccccn3)c3ccc4c(c3n2)CCO4)CN1C(=O)[C@@H](CC(=O)N1CCCCC1)C(C)(C)C)C(=O)NS(=O)(=O)C1CC1 [Compound 150, (2S,4R)-1-((S)-2-tert-butyl-4-oxo-4-(piperidin-1-yl)butanoyl)-N-((1R,2S)-1-(cyclo-propylsulfonyl-carbamoyl)-2-vinylcyclopropyl)-4-(4-(pyridin-2-yl)-8,9-dihydrofuro[2,3-h]quinolin-2-yloxy)pyrrolidine-2-carboxamide] | < 1000
9 | C=CCC1(S(=O)(=O)NC(=O)[C@@]2(NC(=O)[C@@H]3C[C@@H](Oc4cc(-c5ccccc5)nc5cc(OC)ccc45)CN3C(=O)[C@@H](CC(=O)N3CCCCC3)C(C)(C)C)C[C@H]2C=C)CC1 [Compound 151] | < 1000
10 | C=C[C@@H]1C[C@]1(NC(=O)[C@@H]1C[C@@H](Oc2cc(-c3ccccn3)nc3c4c(ccc23)OCC4)CN1C(=O)[C@@H](CC(=O)N1CCCCC1)C(C)(C)C)C(=O)NS(=O)(=O)C1CC1 [Compound 152, (2S,4R)-1-((S)-2-tert-butyl-4-oxo-4-(piperidin-1-yl)butanoyl)-N-((1R,2S)-1-(cyclo-propylsulfonyl-carbamoyl)-2-vinylcyclopropyl)-4-(2-(pyridin-2-yl)-8,9-dihydrofuro[2,3-h]quinolin-4-yloxy)pyrrolidine-2-carboxamide] | < 1000
11 | C=C[C@@H]1C[C@]1(NC(=O)[C@@H]1C[C@@H](Oc2cc(-c3ccccn3)nc3c4c(ccc23)OCC4)CN1C(=O)[C@@H](CC(=O)N1CCOCC1)C(C)(C)C)C(=O)NS(=O)(=O)C1CC1 [Compound 153, (2S,4R)-1-((S)-2-tert-butyl-4-morpholino-4-oxobutanoyl)-N-((1R,2S)-1-(cyclo-propylsulfonyl-carbamoyl)-2-vinylcyclopropyl)-4-(2-(pyridin-2-yl)-8,9-dihydrofuro[2,3-h]quinolin-4-yloxy)pyrrolidine-2-carboxamide] | < 1000
12 | C=C[C@@H]1C[C@]1(NC(=O)[C@@H]1C[C@@H](OC(=O)N2c3ccccc3Oc3ccccc32)CN1C(=O)[C@@H](CC(=O)N1CCCCC1)C(C)(C)C)C(=O)NS(=O)(=O)C1CC1 [Compound 154, (3R,5S)-1-((S)-2-tert-butyl-4-oxo-4-(piperidin-1-yl)butanoyl)-5-((1R,2S)-1-(cyclo-propylsulfonyl-carbamoyl)-2-vinyl-cyclopropyl-carbamoyl)pyrrolidin-3-yl 10H-phenoxazine-10-carboxylate] | 1000 to 10000
13 | C=C[C@@H]1C[C@]1(NC(=O)[C@@H]1C[C@@H](OC(=O)n2c3ccc(Cl)cc3c3cc(Cl)ccc32)CN1C(=O)[C@@H](CC(=O)N1CCCCC1)C(C)(C)C)C(=O)NS(=O)(=O)C1CC1 [Compound 155, (3R,5S)-1-((S)-2-tert-butyl-4-oxo-4-(piperidin-1-yl)butanoyl)-5-((1R,2S)-1-(cyclo-propylsulfonyl-carbamoyl)-2-vinyl-cyclopropyl-carbamoyl)pyrrolidin-3-yl 3,6-dichloro-9H-carbazole-9-carboxylate] | < 1000
14 | C=C[C@@H]1C[C@]1(NC(=O)[C@@H]1C[C@@H](Oc2cc(-c3ccccc3)nc3cc(OC)ccc23)CN1C(=O)[C@@H](CC(=O)N1CCCCC1)C(C)(C)C)C(=O)NS(=O)(=O)C1(Cl)CC1 [Compound 158, (2S,4R)-1-((S)-2-tert-butyl-4-oxo-4-(piperidin-1-yl)butanoyl)-N-((1R,2S)-1-(1-chlorocyclopropyl-sulfonyl-carbamoyl)-2-vinylcyclopropyl)-4-(7-methoxy-2-phenylquinolin-4-yloxy)pyrrolidine-2-carboxamide] | < 1000
15 | C=CC1C[C@]1(NC(=O)[C@@H]1C[C@@H](Oc2cc(-c3ccccc3)nc3cc(OC)ccc23)CN1C(=O)[C@@H](CC(=O)N1CCCC(C(=O)N(CC)CC)C1)C(C)(C)C)C(=O)NS(=O)(=O)C1CC1 (stereo partly drawn) [Compound 159, 1-((S)-3-((2S,4R)-2-((1R,2S)-1-(cyclo-propylsulfonyl-carbamoyl)-2-vinyl-cyclopropyl-carbamoyl)-4-(7-methoxy-2-phenylquinolin-4-yloxy)pyrrolidine-1-carbonyl)-4,4-dimethylpentanoyl)-N,N-diethylpiper-idine-3-carboxamide] | < 1000
16 | C=CC1C[C@]1(NC(=O)[C@@H]1C[C@@H](Oc2cc(-c3ccccc3)nc3cc(OC)ccc23)CN1C(=O)[C@@H](CC(=O)N1CCCC(C(=O)OCC)C1)C(C)(C)C)C(=O)NS(=O)(=O)C1CC1 (stereo partly drawn) [Compound 160, ethyl 1-((S)-3-((2S,4R)-2-((1R,2S)-1-(cyclopropyl-sulfonylcarbamoyl)-2-vinylcyclopropyl-carbamoyl)-4-(7-methoxy-2-phenylquinolin-4-yloxy)pyrrolidine-1-carbonyl)-4,4-dime-thylpentanoyl)piper-idine-3-carboxylate] | < 1000
17 | C=C[C@@H]1C[C@]1(NC(=O)[C@@H]1C[C@@H](Oc2cc(-c3ccccc3)nc3cc(OC)ccc23)CN1C(=O)[C@@H](CC(=O)N1CCC(N(C)C(=O)OC(C)(C)C)C1)C(C)(C)C)C(=O)NS(=O)(=O)C1CC1 (stereo partly drawn) [Compound 161, tert-butyl 1-((S)-3-((2S,4R)-2-((1R,2S)-1-(cyclopropyl-sulfonylcarbamoyl)-2-vinylcyclopropyl-carbamoyl)-4-(7-methoxy-2-phenylquinolin-4-yloxy)pyrrolidine-1-carbonyl)-4,4-dimethyl-pentanoyl)pyrrolidin-3-yl(methyl)carbamate] | < 1000
18 | C=CC1C[C@]1(NC(=O)[C@@H]1C[C@@H](Oc2cc(-c3ccccc3)nc3cc(OC)ccc23)CN1C(=O)[C@@H](CC(=O)N1CCCC(C(F)(F)F)C1)C(C)(C)C)C(=O)NS(=O)(=O)C1CC1 (stereo partly drawn) [Compound 162, (2S,4R)-1-((2S)-2-tert-butyl-4-oxo-4-(3-(trifluoromethyl)pi-peridin-1-yl)butanoyl)-N-((1R,2S)-1-(cyclopropylsulfonyl-carbamoyl)-2-vinylcyclopropyl)-4-(7-methoxy-2-phenylquinolin-4-yloxy)pyrrolidine-2-carboxamide] | < 1000
